For assay [1], the target named is PIK3CG (human) (UniProt P48736). In words: Inhibition of PIK3CG Kinase Activity.
For assay [2], the target named is PIK3CB (Human) (UniProt P42338). In words: Inhibition of PIK3CB Kinase Activity.
In assay [3] the target is PIK3CD (Human) (UniProt O00329). As to the kind of experiment: Inhibition of PIK3CD Kinase Activity.
Assay [4] deals with PIK3CA (human) (UniProt P42336). As to the kind of experiment: Inhibition of PIK3CA Kinase Activity.
PIK3CA (human), sequence (P42336 whole entry, looked up): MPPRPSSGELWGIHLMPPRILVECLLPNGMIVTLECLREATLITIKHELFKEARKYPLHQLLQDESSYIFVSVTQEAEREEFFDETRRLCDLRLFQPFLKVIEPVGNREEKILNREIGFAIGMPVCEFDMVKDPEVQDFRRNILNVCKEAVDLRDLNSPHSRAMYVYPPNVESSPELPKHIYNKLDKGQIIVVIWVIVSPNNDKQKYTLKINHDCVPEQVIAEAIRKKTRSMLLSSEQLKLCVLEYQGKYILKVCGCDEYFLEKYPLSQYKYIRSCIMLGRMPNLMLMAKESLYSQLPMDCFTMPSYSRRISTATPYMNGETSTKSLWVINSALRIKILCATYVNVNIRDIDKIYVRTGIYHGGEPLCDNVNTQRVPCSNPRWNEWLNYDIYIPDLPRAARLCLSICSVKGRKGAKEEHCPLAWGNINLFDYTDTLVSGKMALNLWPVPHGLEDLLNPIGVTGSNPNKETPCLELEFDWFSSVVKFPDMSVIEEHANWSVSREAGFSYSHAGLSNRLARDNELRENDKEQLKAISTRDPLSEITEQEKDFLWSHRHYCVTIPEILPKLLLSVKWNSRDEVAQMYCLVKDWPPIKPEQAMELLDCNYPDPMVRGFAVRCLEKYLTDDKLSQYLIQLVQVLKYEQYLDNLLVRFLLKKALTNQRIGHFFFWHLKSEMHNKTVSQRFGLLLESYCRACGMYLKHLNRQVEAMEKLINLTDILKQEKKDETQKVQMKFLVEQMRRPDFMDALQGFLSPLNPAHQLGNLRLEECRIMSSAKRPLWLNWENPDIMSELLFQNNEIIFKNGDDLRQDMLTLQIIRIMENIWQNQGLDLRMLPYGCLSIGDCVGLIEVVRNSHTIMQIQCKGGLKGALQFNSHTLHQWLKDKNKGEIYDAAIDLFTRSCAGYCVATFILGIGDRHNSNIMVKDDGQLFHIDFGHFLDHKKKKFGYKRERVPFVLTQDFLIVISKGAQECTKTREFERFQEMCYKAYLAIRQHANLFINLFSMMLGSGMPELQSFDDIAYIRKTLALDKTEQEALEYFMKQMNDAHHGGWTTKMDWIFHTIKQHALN

PIK3CD (Human), sequence (O00329 whole entry, looked up): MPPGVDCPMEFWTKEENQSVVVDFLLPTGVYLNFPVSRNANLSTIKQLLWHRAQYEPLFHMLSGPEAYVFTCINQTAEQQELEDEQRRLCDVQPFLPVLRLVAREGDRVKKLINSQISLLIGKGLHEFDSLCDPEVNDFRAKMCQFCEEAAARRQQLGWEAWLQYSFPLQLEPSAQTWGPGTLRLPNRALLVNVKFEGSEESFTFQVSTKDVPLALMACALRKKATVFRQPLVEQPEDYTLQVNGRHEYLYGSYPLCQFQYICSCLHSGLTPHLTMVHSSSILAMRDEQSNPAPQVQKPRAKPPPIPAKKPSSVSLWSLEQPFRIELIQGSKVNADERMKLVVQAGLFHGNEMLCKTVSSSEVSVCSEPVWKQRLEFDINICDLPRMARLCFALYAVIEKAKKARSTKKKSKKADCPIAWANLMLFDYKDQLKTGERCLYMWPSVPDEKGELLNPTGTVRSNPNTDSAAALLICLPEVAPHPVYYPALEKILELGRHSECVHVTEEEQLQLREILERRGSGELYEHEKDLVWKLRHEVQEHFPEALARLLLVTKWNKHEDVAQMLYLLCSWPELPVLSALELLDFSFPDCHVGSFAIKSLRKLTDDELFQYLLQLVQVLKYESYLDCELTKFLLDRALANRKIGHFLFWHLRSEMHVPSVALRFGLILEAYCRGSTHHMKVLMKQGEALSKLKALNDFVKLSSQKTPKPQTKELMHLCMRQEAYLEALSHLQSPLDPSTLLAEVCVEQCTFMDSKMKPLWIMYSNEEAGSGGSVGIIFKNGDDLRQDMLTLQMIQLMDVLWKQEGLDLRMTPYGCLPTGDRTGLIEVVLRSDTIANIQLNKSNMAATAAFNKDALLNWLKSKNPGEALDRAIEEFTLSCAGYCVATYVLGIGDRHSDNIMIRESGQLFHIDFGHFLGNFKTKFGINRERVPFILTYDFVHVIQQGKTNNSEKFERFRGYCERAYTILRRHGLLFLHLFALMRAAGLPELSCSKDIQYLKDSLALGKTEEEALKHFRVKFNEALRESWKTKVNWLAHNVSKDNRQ
PIK3CG (human), sequence (P48736 whole entry, looked up): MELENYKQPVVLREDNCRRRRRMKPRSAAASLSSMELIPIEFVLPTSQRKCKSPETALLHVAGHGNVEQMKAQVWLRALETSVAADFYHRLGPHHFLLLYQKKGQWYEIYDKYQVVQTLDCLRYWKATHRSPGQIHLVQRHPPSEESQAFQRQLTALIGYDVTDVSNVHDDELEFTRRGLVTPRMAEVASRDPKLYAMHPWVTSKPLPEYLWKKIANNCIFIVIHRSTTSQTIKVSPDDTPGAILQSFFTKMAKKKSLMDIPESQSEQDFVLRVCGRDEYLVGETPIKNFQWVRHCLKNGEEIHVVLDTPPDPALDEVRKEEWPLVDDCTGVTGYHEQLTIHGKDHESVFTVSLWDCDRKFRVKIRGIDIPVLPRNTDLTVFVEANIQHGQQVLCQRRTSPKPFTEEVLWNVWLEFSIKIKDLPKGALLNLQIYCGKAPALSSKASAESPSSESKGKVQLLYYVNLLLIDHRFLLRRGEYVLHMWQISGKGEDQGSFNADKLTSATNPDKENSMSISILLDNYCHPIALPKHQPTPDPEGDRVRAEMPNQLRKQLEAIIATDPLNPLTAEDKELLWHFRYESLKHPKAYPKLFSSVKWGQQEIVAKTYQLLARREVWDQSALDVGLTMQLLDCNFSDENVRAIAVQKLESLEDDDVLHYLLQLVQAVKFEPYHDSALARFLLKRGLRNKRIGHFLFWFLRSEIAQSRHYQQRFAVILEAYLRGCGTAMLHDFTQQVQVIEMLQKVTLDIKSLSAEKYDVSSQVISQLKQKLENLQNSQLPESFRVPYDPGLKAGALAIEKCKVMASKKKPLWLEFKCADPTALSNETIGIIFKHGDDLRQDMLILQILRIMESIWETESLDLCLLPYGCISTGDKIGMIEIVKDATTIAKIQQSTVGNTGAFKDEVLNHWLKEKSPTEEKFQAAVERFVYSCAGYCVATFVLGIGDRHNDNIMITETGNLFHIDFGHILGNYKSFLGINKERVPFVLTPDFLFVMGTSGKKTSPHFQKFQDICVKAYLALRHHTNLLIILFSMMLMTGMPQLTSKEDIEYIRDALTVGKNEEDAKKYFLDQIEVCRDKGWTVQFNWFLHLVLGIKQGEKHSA
PIK3CB (Human), sequence (P42338 whole entry, looked up): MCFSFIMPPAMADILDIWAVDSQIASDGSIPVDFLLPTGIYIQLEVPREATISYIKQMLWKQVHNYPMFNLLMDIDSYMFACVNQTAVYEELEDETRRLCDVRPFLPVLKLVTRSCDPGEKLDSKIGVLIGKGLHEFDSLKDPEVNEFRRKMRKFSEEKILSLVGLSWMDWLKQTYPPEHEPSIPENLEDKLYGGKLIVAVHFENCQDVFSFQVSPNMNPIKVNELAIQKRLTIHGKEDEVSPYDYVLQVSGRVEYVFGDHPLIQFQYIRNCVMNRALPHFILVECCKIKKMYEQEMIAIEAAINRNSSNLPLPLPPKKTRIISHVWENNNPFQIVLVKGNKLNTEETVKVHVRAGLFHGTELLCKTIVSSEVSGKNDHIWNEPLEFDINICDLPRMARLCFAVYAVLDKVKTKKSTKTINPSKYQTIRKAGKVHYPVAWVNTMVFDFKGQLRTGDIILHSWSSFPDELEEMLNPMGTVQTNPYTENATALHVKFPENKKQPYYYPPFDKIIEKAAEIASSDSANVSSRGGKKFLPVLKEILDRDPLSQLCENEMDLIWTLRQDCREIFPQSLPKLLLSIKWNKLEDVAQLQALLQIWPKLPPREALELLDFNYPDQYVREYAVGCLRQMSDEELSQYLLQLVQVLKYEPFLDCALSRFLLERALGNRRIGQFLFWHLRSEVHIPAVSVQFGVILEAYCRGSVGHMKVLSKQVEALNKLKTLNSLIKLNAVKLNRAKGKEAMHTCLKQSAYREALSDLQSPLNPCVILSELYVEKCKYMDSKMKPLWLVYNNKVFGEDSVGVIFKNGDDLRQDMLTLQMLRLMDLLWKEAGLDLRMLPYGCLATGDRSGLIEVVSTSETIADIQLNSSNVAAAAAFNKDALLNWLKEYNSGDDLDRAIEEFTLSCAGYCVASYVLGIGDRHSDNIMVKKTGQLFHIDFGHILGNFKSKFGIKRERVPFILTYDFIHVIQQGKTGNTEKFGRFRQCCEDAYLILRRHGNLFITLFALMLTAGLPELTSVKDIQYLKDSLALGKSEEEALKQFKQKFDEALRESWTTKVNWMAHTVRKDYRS

For `Nc1nc2cc(-c3cncc(S(=O)(=O)NC4CC4)c3)ccn2n1`, the IC50 (as a rule, the concentration that inhibits the measured activity by half) in assay [1] was less than 100 nM; in assay [2] it was 100 to 1000 nM; in assay [3], 100 to 1000 nM.

As for `Nc1nc2cc(-c3cncc(S(N)(=O)=O)c3)ccn2n1`, the IC50 was less than 100 nM in assay [1], 100 to 1000 nM in assay [2] and 100 to 1000 nM in assay [3].

`Nc1nc2cc(-c3cncc(S(=O)(=O)NCC(F)(F)F)c3)ccn2n1` registered an IC50 in assay [1] of less than 100 nM.

In turn, `CCCNS(=O)(=O)c1cncc(-c2ccn3nc(N)nc3c2)c1` had an IC50 in assay [1] of less than 100 nM.

Turning to `CC(C)(C)NS(=O)(=O)c1cncc(-c2ccn3nc(N)nc3c2)c1`, the IC50 in assay [1] was less than 100 nM; in assay [4] it was 100 to 1000 nM; in assay [2] it was 100 to 1000 nM; in assay [3] it was 100 to 1000 nM.

`CS(=O)(=O)c1cncc(-c2ccn3nc(N)nc3c2)c1` displayed an IC50 in assay [1] of less than 100 nM.

Consider `Nc1nc2cc(-c3cncc(C(F)(F)F)c3)ccn2n1`, for which, in assay [1], the IC50 lay in the range of 100 to 1000 nM.

Compound `CS(=O)(=O)c1cccc(-c2ccn3nc(N)nc3c2)c1` came in with an IC50 in assay [1] of 100 to 1000 nM.

Turning to `CCNS(=O)(=O)c1cncc(-c2ccn3nc(N)nc3c2)c1`, the IC50 was less than 100 nM in assay [1], 100 to 1000 nM in assay [2] and 100 to 1000 nM in assay [3].

With `CCN(C)S(=O)(=O)c1cncc(-c2ccn3nc(N)nc3c2)c1`, the IC50 in assay [1] is less than 100 nM; in assay [4], 100 to 1000 nM; in assay [3], 100 to 1000 nM.

For `CCCCNS(=O)(=O)c1cccc(-c2ccn3nc(N)nc3c2)c1`, the IC50 in assay [1] lay in the range of 100 to 1000 nM.

In assay [1], `Nc1nc2cc(-c3cncc(S(=O)(=O)N4CCC4)c3)ccn2n1` registered a half-inhibitory concentration (IC50) of less than 100 nM.

Consider `CC(C)NS(=O)(=O)c1cncc(-c2ccn3nc(N)nc3c2)c1`, for which the IC50 in assay [1] was less than 100 nM; in assay [2] it was 100 to 1000 nM; in assay [3] it was 100 to 1000 nM.

Regarding `CC(C)(NS(=O)(=O)c1cncc(-c2ccn3nc(N)nc3c2)c1)C(F)(F)F`, the IC50 in assay [1] is less than 100 nM; in assay [2], 100 to 1000 nM; in assay [3], 100 to 1000 nM.

As for `CC(C)(C)NS(=O)(=O)c1cncc(-c2cc(F)n3nc(N)nc3c2)c1`, the IC50 in assay [1] is less than 100 nM; in assay [2] it was 100 to 1000 nM.

For the compound `Nc1nc2cc(-c3cccnc3)ccn2n1`, the half-inhibitory concentration (IC50) in assay [1] fell in the range of 100 to 1000 nM.

For the compound `CCN(CC)S(=O)(=O)c1cncc(-c2ccn3nc(N)nc3c2)c1`, the IC50 in assay [1] is less than 100 nM; in assay [2] it was 100 to 1000 nM; in assay [3] it was 100 to 1000 nM.

Take `CNS(=O)(=O)c1cncc(-c2ccn3nc(N)nc3c2)c1`: the IC50 in assay [1] was less than 100 nM; in assay [2] it was 100 to 1000 nM; in assay [3], 100 to 1000 nM.

With `Nc1nc2cc(-c3cncc(S(=O)(=O)NCc4ccccc4)c3)ccn2n1`, in assay [1], the IC50 was less than 100 nM.

Regarding `Nc1nc2cc(-c3cncc(S(=O)(=O)Nc4ccccc4)c3)ccn2n1`, the IC50 is less than 100 nM in assay [1] and 100 to 1000 nM in assay [4].

Take `COc1ccc(-c2ccn3nc(N)nc3c2)cc1OC`: the IC50 is less than 100 nM in assay [1], 100 to 1000 nM in assay [4] and 100 to 1000 nM in assay [3].

For the origin of these results see the Kinase Knowledgebase extract (Sharma et al. 2016).
